The assay relates to Aedes taeniorhyncus mosquitoes. Kind of assay: Outdoor screened cage mosquito capture test with CO2 collection jar and attractant. Type of assay: in vivo. Conditions: for Average captured: average of three replicate tests; for Average captured / Total captured: 250 μL attractant + 500 cc/min CO2, 1000 mosquitoes per test; for Mosquitoes captured: single replicate test, 250 μL attractant on fibrous absorbent in CFG 6 jar with 500 cc/min CO2, 1000 mosquitoes introduced, after several hours; for Total captured: sum of three replicate tests; for Average increase in capture over control: versus CO2-only control (average 334 captured). As for the experimental part: The following tests were conducted by the United States Department of Agriculture in Florida in a large outdoor screened cage of a size of approximately 30 ft.×60 ft.×20 ft. (9.144×18.288×6.096 meters). Into approximately the center of the base of the cage was placed a CFG 6 Collection Jar of American Biophysics providing 500 cc/min CO2. Also placed in the CFG-6 Jar was a fibrous absorbent into which had been absorbed 250 μL of the test attractant compound. There were then introduced into the cage, from the periphery thereof, 1000 Aedes taeniorhyncus mosquitoes. After a period of several hours the collection jar was examined to determine the number of mosquitoes captured. As controls, similar tests were run with the CF 6 Collection jar without any attractant compound, i.e. with only CO2. Three replicate tests were run with each test attractant compound. The compound 1-octyn-3-ol was employed as the attractant compound of this invention and 1-octenol as an example of a prior art attractant.

The structures appear in SMILES notation. Where “and” joins values, the source holds several entries; their conditions need not be identical. Equal values may be shown once.

On to `C=CC(O)CCCCC` (stereo not drawn) [1-octen-3-ol, reference compound], for which the Average captured result is “Average captured: 568”; the Mosquitoes captured is 624 and 560 and 520; the Total captured was found to be 1704; the “Average increase in capture over control” value is “Average increase in capture over control: 234”.
In the case of `C#CC(O)CCCCC` (stereo not drawn) [1-octyn-3-ol], the Average captured result was “Average captured: 735”; the Mosquitoes captured was 779 and 599 and 826; the Total captured is 2204; the “Average increase in capture over control” value is “Average increase in capture over control: 401”. Moreover, the “more mosquitoes captured than the prior art 1-octen-3-ol attractant” value (compared with 1-octen-3-ol in the same test) is given as “over 71%”.

The record behind these values is patent US6866858B2, “Method and compositions for attracting mosquitoes” (BioSensory, Inc., priority 2000, dated 2005).
